This passage reports inhibition and IC50 results from PMC9504985, “Identification of Novel Aryl Carboxamide Derivatives as Death-Associated Protein Kinase 1 (DAPK1) Inhibitors with Anti-Proliferative Activities: Design, Synthesis, In Vitro, and In Silico Biological Studies” (Pharmaceuticals, 2022).

SMILES strings stand for the structures.

The target in one assay is T1, Death-associated protein kinase 1 (DAPK1) (Homo sapiens, UniProt P53355). Description: single-dose kinase assay, % inhibition at […]. The assay is classed as biochemical. Particulars: read-out: % Inhibition against DAPK1 ^a.
T1 sequence (P53355 whole entry): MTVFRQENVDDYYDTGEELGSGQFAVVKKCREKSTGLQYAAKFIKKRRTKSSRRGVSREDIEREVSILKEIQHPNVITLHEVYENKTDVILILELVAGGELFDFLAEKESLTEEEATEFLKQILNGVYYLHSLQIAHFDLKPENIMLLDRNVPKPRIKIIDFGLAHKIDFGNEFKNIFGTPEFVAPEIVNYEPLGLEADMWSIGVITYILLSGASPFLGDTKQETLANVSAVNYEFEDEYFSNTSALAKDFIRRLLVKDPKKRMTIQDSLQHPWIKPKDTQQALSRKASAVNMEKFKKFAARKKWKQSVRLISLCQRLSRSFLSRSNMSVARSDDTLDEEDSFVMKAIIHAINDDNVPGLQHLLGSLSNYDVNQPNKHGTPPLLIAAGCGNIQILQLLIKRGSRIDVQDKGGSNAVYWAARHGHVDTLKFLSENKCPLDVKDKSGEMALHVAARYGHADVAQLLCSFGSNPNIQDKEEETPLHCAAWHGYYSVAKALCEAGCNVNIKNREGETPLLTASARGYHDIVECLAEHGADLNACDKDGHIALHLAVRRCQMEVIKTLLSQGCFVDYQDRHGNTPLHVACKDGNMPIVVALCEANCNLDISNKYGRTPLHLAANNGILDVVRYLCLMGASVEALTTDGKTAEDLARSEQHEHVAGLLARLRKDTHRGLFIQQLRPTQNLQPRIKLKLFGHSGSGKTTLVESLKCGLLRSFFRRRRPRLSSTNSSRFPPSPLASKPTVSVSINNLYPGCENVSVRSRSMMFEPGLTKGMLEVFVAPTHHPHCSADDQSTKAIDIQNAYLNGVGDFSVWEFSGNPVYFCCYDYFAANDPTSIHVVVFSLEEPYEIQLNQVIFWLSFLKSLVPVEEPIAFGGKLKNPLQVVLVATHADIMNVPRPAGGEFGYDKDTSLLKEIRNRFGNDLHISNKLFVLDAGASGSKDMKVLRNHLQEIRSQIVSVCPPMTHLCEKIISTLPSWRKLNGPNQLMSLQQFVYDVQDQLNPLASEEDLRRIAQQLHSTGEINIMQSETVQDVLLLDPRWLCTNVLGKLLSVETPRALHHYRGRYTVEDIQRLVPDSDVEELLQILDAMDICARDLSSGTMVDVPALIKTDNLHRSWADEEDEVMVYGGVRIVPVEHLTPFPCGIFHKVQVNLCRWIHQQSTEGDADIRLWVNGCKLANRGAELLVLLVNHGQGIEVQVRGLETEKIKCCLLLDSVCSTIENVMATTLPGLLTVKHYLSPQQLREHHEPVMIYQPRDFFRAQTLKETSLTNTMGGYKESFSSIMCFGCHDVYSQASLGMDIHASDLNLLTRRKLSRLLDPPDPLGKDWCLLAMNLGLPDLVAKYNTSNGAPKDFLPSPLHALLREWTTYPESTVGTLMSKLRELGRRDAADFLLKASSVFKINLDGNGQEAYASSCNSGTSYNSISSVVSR
Consider `O=C(Nc1ccc(Oc2cccc(Cl)c2)c(Cl)c1)c1ccccn1` [4m, N-(3-chloro-4-(3-chlorophenoxy)phenyl) picolinamide], for which the inhibition at 10 µM was 61.7%.
As for `O=C(Nc1ccc(Oc2cccc(Cl)c2)c(Cl)c1)c1cccnn1` [4n, N-(3-chloro-4-(3-chlorophenoxy)phenyl) pyridazine-3-carboxamide], the inhibition at 10 µM turned out to be 61.5%.
Turning to `O=C(Nc1ccc(Oc2cccc(Cl)c2)c(Cl)c1)c1cccnc1` [4p, N-(3-chloro-4-(3-chlorophenoxy)phenyl) nicotinamide], the inhibition at 10 µM stood at 61.5%.
As for `O=C(Nc1ccc(Oc2cccc(Cl)c2)c(Cl)c1)c1ccnnc1` [4r, N-(3-chloro-4-(3-chlorophenoxy)phenyl) pyridazine-4-carboxamide], the inhibition at 10 µM was 60%.

The next assay concerns the target T1, Death-associated protein kinase 1 (DAPK1). The assay is described as follows: 10-dose kinase assay (Reaction Biology HotSpot). The class given is biochemical.
Settings: not given
As for `O=C(Nc1ccc(Oc2ccc(F)cc2)c(Cl)c1)c1ccccn1` [4h, N-(3-chloro-4-(4-fluorophenoxy)phenyl) picolinamide], the half-inhibitory concentration (IC50) came to 6.81 µM.
As for `O=C(Nc1ccc(Oc2ccc(F)cc2)c(Cl)c1)c1cccnc1` [4j, N-(3-chloro-4-(4-fluorophenoxy)phenyl) nicotinamide], half-maximal inhibition (IC50) required 1.7 µM.
The same measure, in the same setting: to `O=C(Nc1ccc(Oc2ccc(F)cc2)c(Cl)c1)c1ccncc1` [4k, N-(3-chloro-4-(4-fluorophenoxy)phenyl) isonicotinamide] belongs 7.26 µM; to `O=C(Nc1ccc(Oc2cccc(Cl)c2)c(Cl)c1)c1ccncc1` [4q, N-(3-chloro-4-(3-chlorophenoxy)phenyl) isonicotinamide], 1.09 µM.

As a reminder, the inhibition is the drop in the measured response relative to a control, in per cent. Broadly, the IC50 is the midpoint of a concentration-inhibition curve. Read a high IC50 as lower potency.
